How the values were obtained:
[1] = molecular target: T1, alpha 2C receptor (Homo sapiens, UniProt P18825); test: RSAT assay (Receptor Selection and Amplification Technology), Alpha 2C; format: cell-based; settings: RSAT
T1 construct: expressed in transfected cells; host or cells: NIH-3T3
T1 sequence (P18825 1-462): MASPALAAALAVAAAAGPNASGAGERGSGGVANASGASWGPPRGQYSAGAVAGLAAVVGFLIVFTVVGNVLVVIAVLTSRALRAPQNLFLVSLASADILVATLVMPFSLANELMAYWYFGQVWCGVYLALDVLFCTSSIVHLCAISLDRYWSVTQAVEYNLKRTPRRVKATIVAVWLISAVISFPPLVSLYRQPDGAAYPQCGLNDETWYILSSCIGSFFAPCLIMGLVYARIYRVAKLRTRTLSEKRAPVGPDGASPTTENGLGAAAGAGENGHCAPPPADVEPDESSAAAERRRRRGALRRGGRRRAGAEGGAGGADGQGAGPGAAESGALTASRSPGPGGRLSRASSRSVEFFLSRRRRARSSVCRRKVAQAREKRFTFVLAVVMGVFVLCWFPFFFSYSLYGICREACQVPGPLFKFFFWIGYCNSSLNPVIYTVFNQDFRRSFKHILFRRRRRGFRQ
Protocol: The RSAT assay measures a receptor-mediated loss of contact inhibition that results in selective proliferation of receptor-containing cells in a mixed population of confluent cells. The increase in cell number is assessed with an appropriate transfected marker gene such as β-galactosidase, the activity of which can be easily measured in a 96-well format. Receptors that activate the G protein, Gq, elicit this response. Alpha 2 receptors, which normally couple to Gi, activate the RSAT response when coexpressed with a hybrid Gq protein that has a Gi receptor recognition domain, called Gq/i5.
NIH-3T3 cells are plated at a density of 2×10^6 cells in 15 cm dishes and maintained in Dulbecco's modified Eagle's medium supplemented with 10% calf serum. One day later, cells are cotransfected by calcium phosphate precipitation with mammalian expression plasmids encoding p-SV-β-galactosidase (5-10 μg), receptor (1-2 μg) and G protein (1-2 μg). 40 μg salmon sperm DNA may also be included in the transfection mixture. […] Cells are thawed and 100 μl added to 100 μL aliquots of various concentrations of drugs in triplicate in 96-well dishes. Incubations continue 72-96 hr at 37° C. After washing with phosphate-buffered saline, β-galactosidase enzyme activity is determined by adding 200 μL of the chromogenic substrate (consisting of 3.5 mM o-nitrophenyl-β-D-galactopyranoside and 0.5% nonidet P-40 in phosphate buffered saline), incubating overnight at 30° C. and measuring optical density at 420 nm. The absorbance is a measure of enzyme activity, which depends on cell number and reflects a receptor-mediated cell proliferation. The efficacy or intrinsic activity is calculated as a ratio of the maximal effect of the drug to the maximal effect of a standard full agonist for each receptor subtype. Brimonidine, the chemical structure of which is shown below, is used as the standard agonist for the alpha 2B and alpha 2C receptors. […] NA stands for “not active” at concentrations less than 3-10 micromolar.

[2] = tested on: Chung model of neuropathic pain; test: Chung model of neuropathic pain (tactile allodynia, von Frey hairs); format: in vivo; settings: rats
Source text: A model in accordance with Kim and Chung 1992, Pain […], pp 355-363 (Chung model), for chronic pain (in particular peripheral neuropathy) involves the surgical ligation of the L5 (and optionally the L6) spinal nerves on one side in experimental animals. Rats recovering from the surgery gain weight and display a level of general activity similar to that of normal rats. However, these rats develop abnormalities of the foot, wherein the hindpaw is moderately everted and the toes are held together. More importantly, the hindpaw on the side affected by the surgery appears to become sensitive to pain from low-threshold mechanical stimuli, such as that producing a faint sensation of touch in a human, within about 1 week following surgery. This sensitivity to normally non-painful touch is called “tactile allodynia” and lasts for at least two months. The response includes lifting the affected hindpaw to escape from the stimulus, licking the paw and holding it in the air for many seconds. None of these responses is normally seen in the control group.
Rats are anesthetized before surgery. The surgical site is shaved and prepared either with betadine or Novacaine. Incision is made from the thoracic vertebra XIII down toward the sacrum. Muscle tissue is separated from the spinal vertebra (left side) at the L4-S2 levels. The L6 vertebra is located and the transverse process is carefully removed with a small rongeur to expose the L4-L6 spinal nerves. The L5 and L6 spinal nerves are isolated and tightly ligated with 6-0 silk thread. The same procedure is done on the right side as a control, except no ligation of the spinal nerves is performed.
A complete hemostasis is confirmed, then the wounds are sutured. A small amount of antibiotic ointment is applied to the incised area, and the rat is transferred to the recovery plastic cage under a regulated heat-temperature lamp. On the day of the experiment, at least seven days after the surgery, typically six rats per test group are administered the test drugs by intraperitoneal (i.p.) injection or oral gavage. For i.p. injection, the compounds are formulated in approximately 10 to 50% DMSO and given in a volume of 1 ml/kg body weight.
Tactile allodynia is measured prior to and 30 minutes after drug administration using von Frey hairs that are a series of fine hairs with incremental differences in stiffness. Rats are placed in a plastic cage with a wire mesh bottom and allowed to acclimate for approximately 30 minutes. The von Frey hairs are applied perpendicularly through the mesh to the mid-plantar region of the rats' hindpaw with sufficient force to cause slight buckling and held for 6-8 seconds. The applied force has been calculated to range from 0.41 to 15.1 grams. If the paw is sharply withdrawn, it is considered a positive response. A normal animal will not respond to stimuli in this range, but a surgically ligated paw will be withdrawn in response to a 1-2 gram hair. The 50% paw withdrawal threshold is determined using the method of Dixon, W. J., Ann. Rev. Pharmacol. Toxicol. 20:441-462 (1980). The post-drug threshold is compared to the pre-drug threshold and the percent reversal of tactile sensitivity is calculated based on a normal threshold of 15.1 grams. The results are expressed in percent (%) MPE, where the MPE value reflects the percentage reversal of pain threshold to that of a normal animal (100%).

Cc1cccc(C(Cc2cccnc2)/N=C2/NCCO2)c1C (centres unmarked) [Compound 21, 1-(2,3-Dimethylphenyl)-N-(oxazolidin-2-ylidene)-2-(pyridin-3-yl)ethanamine]
EC50 ([1]; transfected NIH-3T3 cells with Gq/i5, NA = not active at concentrations less than 10 micromolar, read-out: potency nM (EC50) Alpha 2C): 18 nM
Intrinsic Activity efficacy Alpha 2C ([1]; value in parentheses, ratio of maximal effect to that of brimonidine): 0.4
% Pain Reversal ± SEM ([2]; 0.10 mg i.p., 30 min): 27 ± 5%
% Pain Reversal ± SEM ([2]; 0.10 mg i.p., 60 min): ~10%
% Pain Reversal ± SEM ([2]; 0.30 mg i.p., 30 min): 60.1 ± 12.8%
% Pain Reversal ± SEM ([2]; 0.30 mg i.p., 60 min): 21.5 ± 6.1%
% Pain Reversal ± SEM ([2]; 1.0 mg i.p., 30 min): 95.9 ± 4.1%
% Pain Reversal ± SEM ([2]; 1.0 mg i.p., 60 min): 77.0 ± 7.6%

— patent US8362022B2, “Selective subtype alpha 2 adrenergic agents and methods for use thereof” (Allergan, Inc., priority 2008, dated 2013)
